Source: patent US9862684B2, “Modulation of K2P channels” (The Regents of the University of California, priority 2013, dated 2018)
Where “and” joins values, the source holds several entries; their conditions need not be identical. Equal values may be shown once.

What was measured:
Type in all cases: cell-based, Murine
[1] = biological target: T1, K2P3.1 (TASK-1) (Mus musculus, UniProt O35111); experiment: Two-electrode voltage clamp, Xenopus oocytes expressing K2P3.1 (TASK-1)
T1 construct: expressed in transfected cells; host or cells: Xenopus oocytes
T1 sequence (O35111 whole entry): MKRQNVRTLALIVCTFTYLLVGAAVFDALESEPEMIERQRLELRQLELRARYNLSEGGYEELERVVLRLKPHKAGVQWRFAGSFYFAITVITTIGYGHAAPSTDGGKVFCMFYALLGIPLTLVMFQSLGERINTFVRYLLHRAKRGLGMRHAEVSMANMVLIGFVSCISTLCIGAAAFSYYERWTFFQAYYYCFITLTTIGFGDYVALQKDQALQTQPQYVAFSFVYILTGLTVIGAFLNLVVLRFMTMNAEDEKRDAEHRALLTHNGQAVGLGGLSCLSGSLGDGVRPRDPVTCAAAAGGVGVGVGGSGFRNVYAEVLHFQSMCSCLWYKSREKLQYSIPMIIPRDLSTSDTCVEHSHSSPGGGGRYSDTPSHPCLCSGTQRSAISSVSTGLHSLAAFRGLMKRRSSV
Protocol: (§1) FIG. 7 ML67-33 is a selective activator of heat- and mechanosensitive K2P channels. a-f, Exemplar I-V curves showing the effect of ML67-33 on a, K2P10.1 (TREK-2), b, K2P4.1 (TRAAK), c, K2P3.1 (TASK-1), d, K2P9.1 (TASK-3), e, K2P5.1 (TASK-2), and f, K2P18.1 (TRESK) measured in Xenopus oocytes in 2 mM [K^+]o pH 7.4. Currents were elicited by a voltage ramp from −150 to 50 mV, from a holding potential of −80 mV. g, Quantification of the effect of ML67-33 on the indicated channels. Data (mean±s.e., n≧6, N≧2) was normalized to basal channel activity and fitted to the Hill equation. […] Error bars indicate s.e., n≧6, N≧2.
(§2) Murine K2P channels were cloned into pGEMHE/pMO {Bagriantsev, 2011}, IRES-GFP (Invitrogen), or pYES2-MET25 (high copy 2μ, URA3) {Minor, 1999} for expression in oocytes, HEK-293T cells, and yeast, respectively, using standard molecular biology procedures, and verified by DNA sequencing.
Two-electrode voltage clamp recordings were performed from defolliculated stage V-VI Xenopus oocytes 24-48 hours after injection with 0.015-6.0 ng cRNA, using microelectrodes (0.3-3.0 MΩ) filled with 3M KCl. Data was acquired using the GeneClamp 500B (MDS Analytical Technologies) amplifier controlled by the pClamp software (Molecular Devices), and digitized at 1 kHz using Digidata 1332A (MDS Analytical Technologies). Recording solutions (mM): 2K (96 NaCl, 2 KCl, 1.8 CaCl2, 2 MgCl2), 90K (90 KCl, 8 NaCl, 1.8 CaCl2, 2 MgCl2), were buffered 5 mM HEPES pH 7.4. For K2P recordings, currents we elicited by a 1 second long ramp from −150 to +50 mV from a holding potential of −80 mV (2K), or −100 to +50 mV from a holding potential of 0 mV (90K). For KCNQ2 recordings, currents were elicited by a step protocol from −120 to 60 mV, in 20 mV increments, from a holding potential of −80 mV. Patch-clamp recordings from HEK-293T cells were performed using microelectrodes (2-3 MΩ) filled with 1M KCl. Data was acquired using the Axopatch 200B amplifier controlled by pClamp software, and digitized at 1 kHz using Digidata 1332A. Recording solutions (mM): intracellular (145 KCl, 5 EGTA, 3 MgCl2,) extracellular (150 NaCl, 5 KCl, 3 MgCl2, 1 CaCl2) were buffered with 5 mM HEPES pH 7.2 and 7.4, respectively. Currents were elicited by a 1 second long ramp from −150 to +50 mV from a holding potential of −80 mV. Data were fitted with a modified Hill's equation: I=Imin+(Imax−Imin)/(1+10^((Log EC50−Log [C])*H)), where Imax and Imin are maximal and minimal current values, respectively, EC50 is a half-maximal effective concentration of the compound, and H is the Hill coefficient.
There are six K2P subgroups {Noel, 2011} (FIG. 11). […]

[2] = biological target: T2, K2P5.1 (TASK-2) (Mus musculus, UniProt F6V9U5); experiment: Two-electrode voltage clamp, Xenopus oocytes expressing K2P5.1 (TASK-2)
T2 construct: expressed in transfected cells; host or cells: Xenopus oocytes
T2 sequence (F6V9U5 1-502): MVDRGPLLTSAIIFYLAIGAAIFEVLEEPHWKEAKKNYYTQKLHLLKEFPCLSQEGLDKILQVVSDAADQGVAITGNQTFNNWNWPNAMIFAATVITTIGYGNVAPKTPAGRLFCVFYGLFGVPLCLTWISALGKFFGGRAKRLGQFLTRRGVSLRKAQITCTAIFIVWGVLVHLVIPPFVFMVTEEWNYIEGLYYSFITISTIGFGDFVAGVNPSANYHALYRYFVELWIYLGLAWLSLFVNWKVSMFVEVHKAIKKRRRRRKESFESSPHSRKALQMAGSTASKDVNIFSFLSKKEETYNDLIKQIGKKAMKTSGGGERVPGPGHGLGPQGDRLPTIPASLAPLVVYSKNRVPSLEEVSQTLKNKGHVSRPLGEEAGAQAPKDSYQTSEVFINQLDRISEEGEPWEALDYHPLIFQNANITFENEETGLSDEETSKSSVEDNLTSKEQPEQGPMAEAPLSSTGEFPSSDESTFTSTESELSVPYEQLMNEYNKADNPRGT
Protocol: as §1, §2
(§3) Two-electrode voltage clamp recordings were performed from defolliculated stage V-VI Xenopus oocytes 24-48 hours after injection with 0.015-6.0 ng cRNA, using microelectrodes (0.3-3.0 MΩ) filled with 3M KCl. Data was acquired using the GeneClamp 500B (MDS Analytical Technologies) amplifier controlled by the pClamp software (Molecular Devices), and digitized at 1 kHz using Digidata 1332A (MDS Analytical Technologies). […]

[3] = biological target: T3, K2P4.1 (TRAAK) (Mus musculus, UniProt O88454); experiment: Two-electrode voltage clamp, Xenopus oocytes expressing K2P4.1 (TRAAK)
T3 construct: expressed in transfected cells; host or cells: Xenopus oocytes
T3 sequence (O88454 1-398): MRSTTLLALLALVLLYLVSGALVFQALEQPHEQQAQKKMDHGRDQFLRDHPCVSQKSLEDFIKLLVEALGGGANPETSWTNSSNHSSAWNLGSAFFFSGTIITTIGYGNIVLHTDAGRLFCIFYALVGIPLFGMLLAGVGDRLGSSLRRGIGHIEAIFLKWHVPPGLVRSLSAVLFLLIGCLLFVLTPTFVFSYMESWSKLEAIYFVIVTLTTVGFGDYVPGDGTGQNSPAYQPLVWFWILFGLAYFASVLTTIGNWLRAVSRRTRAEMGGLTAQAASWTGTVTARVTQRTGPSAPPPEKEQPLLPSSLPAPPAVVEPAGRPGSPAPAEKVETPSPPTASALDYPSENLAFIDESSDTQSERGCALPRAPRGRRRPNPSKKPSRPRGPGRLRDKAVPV
Protocol: as §1, §2, §3

[4] = at 100 μM (FIG. 7 legend), ** in Table 1

SMILES: CC1(C)c2cc(Cl)ccc2N(CCc2nnn[nH]2)c2ccc(Cl)cc21 [ML67-33, 2,7-dichloro-9,9-dimethyl-10-[2-(1H-tetrazol-5-yl)ethyl]acridine]
- functional effect / activation (in words) ([1]; ML67-33 applied at 100 μM, ML67 concentration not stated): little or no functional effects
- Emax (fold) [1, 4]: 1.1±0.0 fold and 1.1 ± 0.1** fold
- functional effect (in words) ([2]; applied at 100 μM): little or no functional effects
- Emax (fold) [2, 4]: 1.7±0.3 fold
- EC50 ([3]; Xenopus oocytes, 2 mM [K+]o pH 7.4): 27.3 ± 1.2 µM
- Emax (fold) [3, 4]: 14.7±1.1 fold and 14.7±1.12 fold
